Results reported in patent publication US12061201B2, “Fluorescent probes for the visualization of FtsZ in gram-positive and gram-negative bacterial pathogens” (Rutgers, The State University of New Jersey, priority 2019, dated 2024).
Where two headings read alike, the source gives them in different places.

Columns and labels:
[1] = molecular target: Escherichia coli FtsZ (EcFtsZ) (Escherichia coli, UniProt P0A9A6); test: Fluorescence anisotropy binding of BOFP to FtsZ; conditions: for Kd: 50 mM Tris-HCl (pH 7.6), 50 mM KCl
Chain of Escherichia coli FtsZ (EcFtsZ) (P0A9A6 whole entry): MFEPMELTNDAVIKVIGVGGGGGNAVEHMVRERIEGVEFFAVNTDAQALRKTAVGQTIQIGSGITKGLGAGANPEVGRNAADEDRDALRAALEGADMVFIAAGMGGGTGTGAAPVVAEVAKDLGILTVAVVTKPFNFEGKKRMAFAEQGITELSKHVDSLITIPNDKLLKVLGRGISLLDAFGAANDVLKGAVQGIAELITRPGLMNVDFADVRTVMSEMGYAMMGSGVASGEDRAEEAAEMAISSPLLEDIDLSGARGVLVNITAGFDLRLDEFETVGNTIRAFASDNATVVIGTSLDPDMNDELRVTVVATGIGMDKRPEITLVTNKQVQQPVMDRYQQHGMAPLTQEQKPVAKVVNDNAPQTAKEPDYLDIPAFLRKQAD
Experimental: Fluorescence anisotropy assay for determining the affinities and thermodynamics associated with the binding of BOFP to FtsZ proteins. Fluorescence anisotropy experiments were performed using an AVIV model ATF105 spectrofluorometer at 15, 25, or 37° C. In these experiments, bandwidths were set to 4 nm in both the excitation and emission directions, with the excitation and emission wavelengths being set at 488 nm and 510 nm, respectively. BOFP (0.1 μM) was titrated with increasing concentrations (ranging from 0 to 12 μM) of FtsZ in 120 μL of buffer containing 50 mM Tris-HCl (pH 7.6) and 50 mM KCl. After each protein addition, the samples were equilibrated for 3 minutes, whereupon the fluorescence anisotropy was measured.
[formula] In this equation, r0 is the anisotropy of the protein-free compound, r∞ is the anisotropy of the compound in the presence of an infinite concentration of FtsZ, [C]tot is the total concentration of the compound, and [P]tot is the total concentration of protein with each addition. These analyses yielded the equilibrium dissociation constant (Kd) for each binding reaction.
The binding free energy (ΔG) at temperature T was derived from the corresponding Kd value determined at T using the following relationship:
[formula] The binding enthalpy (ΔH) and entropy (ΔS) were derived from linear fits of the ln(1/Kd) vs. 1/T plots shown in FIGS. 3f and 5e using the following relationship:
A quartz ultra-micro cell (Hellma) with a 2×5 mm aperture and a 15 mm center height was used for all measurements. The pathlengths in the excitation and emissions directions were 1 and 0.2 cm, respectively. All steady-state anisotropy experiments were conducted in at least triplicate, with the reported anisotropies reflecting the average values.

[2] = molecular target: T1, FtsZ in E. faecalis ATCC 29212 cells (Enterococcus faecalis, UniProt O08439); test: Fluorescence microscopy FtsZ visualization in live cells; assay type: cell-based; conditions: 1 μg/mL (1.3 μM) BOFP, 5 minutes
T1 construct: endogenous in cells; host or cells: E. faecalis ATCC 29212
T1 sequence (O08439 whole entry): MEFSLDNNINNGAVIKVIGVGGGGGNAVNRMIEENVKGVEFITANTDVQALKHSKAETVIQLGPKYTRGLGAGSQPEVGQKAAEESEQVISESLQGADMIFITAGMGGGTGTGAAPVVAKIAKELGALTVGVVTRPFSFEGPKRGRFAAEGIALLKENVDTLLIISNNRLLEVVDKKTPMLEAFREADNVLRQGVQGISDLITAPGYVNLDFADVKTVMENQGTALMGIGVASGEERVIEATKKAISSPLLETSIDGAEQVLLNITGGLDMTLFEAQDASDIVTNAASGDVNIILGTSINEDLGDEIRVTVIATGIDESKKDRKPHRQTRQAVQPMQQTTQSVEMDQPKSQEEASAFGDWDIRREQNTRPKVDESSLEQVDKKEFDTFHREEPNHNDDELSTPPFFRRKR
Experimental: (§1) Fluorescence microscopy assay for visualizing FtsZ and monitoring cell division in live Gram-positive and Gram-negative bacterial cells using BOFP. All fluorescence microscopy experiments were conducted using an Olympus BX50 microscope equipped with an X-cite Exacte 200W mercury lamp, a 100× Olympus UPLSAPO oil immersion objective (1.40 aperture), and a Chroma ET-EGFP (FITC/Cy2) filter. Images were captured using a QImaging Retiga R3 charge-coupled device (CCD) camera and the Ocular-Version 2.0 software package (QImaging).
(§2) For visualizing FtsZ in Gram-positive bacteria using BOFP, the bacterial cells were grown to log-phase in media suitable for each individual pathogen. Specifically, S. aureus NRS705 was grown in tryptic soy broth (TSB), E. faecalis ATCC 29212 and E. faecium ATCC 19434 were grown in lactobacilli MRS broth, S. agalactiae ATCC 12386 and S. pneumoniae ATCC 49619 were grown in TH broth, and S. pyogenes ATCC 19615 was grown in CAMH broth supplemented with 3% (v/v) LHB. For each Gram-positive bacterial strain, a total of 1 mL of cell culture was centrifuged at 15,000×g for 1 minute and washed 2-3 times with 1 mL of PBS. After the final wash, the pelleted cells were resuspended in 500 μL of PBS containing 1 μg/mL of BOFP and incubated in the dark for 5 minutes at room temperature. The cells were then centrifuged at 15,000×g for 1 minute, washed twice with 1 mL of PBS, and subsequently resuspended in 200 μL of PBS. 8 μL of this final cell suspension was then spread on a 0.25 mm layer of 1.5% high-resolution agarose (Sigma) in PBS, which was mounted on a standard 75×25×1 mm microscope slide (Azer Scientific) using a 1.7×2.8×0.025 cm Gene Frame (ThermoFisher). A 24×40 mm cover slip (Azer Scientific) was then applied to the agarose pad to prepare the slide for microscopic visualization.

[3] = system: FtsZ in S. pyogenes ATCC 19615 cells; test: as above; assay type: cell-based; conditions: 1 μg/mL (1.3 μM) BOFP, 5 minutes
Experimental: as §1, §2

[4] = molecular target: T2, FtsZ in S. aureus NRS705 cells (Staphylococcus aureus, UniProt P0A031); test: as above; assay type: cell-based; conditions: 1 μg/mL (1.3 μM) BOFP, 5 minutes
T2 construct: endogenous in cells; host or cells: S. aureus NRS705
T2 sequence (P0A031 1-390): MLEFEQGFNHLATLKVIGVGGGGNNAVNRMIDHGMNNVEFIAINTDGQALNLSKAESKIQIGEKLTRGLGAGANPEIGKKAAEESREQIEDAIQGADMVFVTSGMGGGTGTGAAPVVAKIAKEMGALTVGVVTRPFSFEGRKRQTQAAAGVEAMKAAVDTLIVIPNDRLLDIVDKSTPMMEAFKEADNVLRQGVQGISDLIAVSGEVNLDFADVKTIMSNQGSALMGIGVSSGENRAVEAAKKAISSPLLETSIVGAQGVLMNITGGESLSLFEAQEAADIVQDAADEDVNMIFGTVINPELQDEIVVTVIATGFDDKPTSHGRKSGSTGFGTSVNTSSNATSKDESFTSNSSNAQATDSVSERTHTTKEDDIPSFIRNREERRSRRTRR
Experimental: as §1, §2

[5] = system: FtsZ in S. agalactiae ATCC 12386 cells; test: as above; assay type: cell-based; conditions: 1 μg/mL (1.3 μM) BOFP, 5 minutes
Experimental: as §1, §2

[6] = system: FtsZ in E. faecium ATCC 19434 cells; test: as above; assay type: cell-based; conditions: 1 μg/mL (1.3 μM) BOFP, 5 minutes
Experimental: as §1, §2

[7] = system: FtsZ in S. pneumoniae ATCC 49619 cells; test: as above; assay type: cell-based; conditions: 1 μg/mL (1.3 μM) BOFP, 5 minutes
Experimental: as §1, §2

[8] = linear fit of ln(1/Kd) vs. 1/T, Eq. 3

SMILES: CC1=CC(C)=[N+]2C1=Cc1ccc(CCC(=O)OCC(Oc3ccc(F)c(C(N)=O)c3F)c3nc(-c4ccc(C(F)(F)F)cc4)c(Br)o3)n1[B-]2(F)F (stereo not shown) [BOFP, 2-(5-bromo-4-(4-(trifluoromethyl)phenyl)-oxazol-2-yl)-2-(3-carbamoyl-2,4-difluorophenoxy)ethyl 3-(5,5-difluoro-7,9-dimethyl-5H-5λ^4,6λ^4-dipyrrolo[1,2-c:2′,1′-f][1,3,2]diazaborinin-3-yl)propanoate]
- ΔH contribution to the observed ΔG of binding [1]: > 50%
- Kd ([1]; 15° C., read-out: Kd −15° C.): 220 ± 30 nM
- Kd ([1]; 25° C., read-out: Kd −25° C.): 280 ± 20 nM
- Kd ([1]; 37° C., read-out: Kd −37° C.): 440 ± 40 nM
- ΔG ([1]; T = 310K (37° C.), Eq. 2): -9.0 ± 0.1 kcal/mol
- ΔH [1, 8]: -5.6 ± 0.8 kcal/mol
- ΔS [1, 8]: +11.2 ± 2.7 cal/mol · K
- FtsZ labeling (fluorescence staining) in live cells [2]: bright bands of fluorescence staining were clearly visible at midcell
- FtsZ labeling (fluorescence staining) in live cells [3]: bright bands of fluorescence staining were clearly visible at midcell
- FtsZ labeling (fluorescence staining) in live cells [4]: bright bands of fluorescence staining were clearly visible at midcell
- FtsZ labeling (fluorescence staining) in live cells [5]: bright bands of fluorescence staining were clearly visible at midcell
- FtsZ labeling (fluorescence staining) in live cells [6]: bright bands of fluorescence staining were clearly visible at midcell
- FtsZ labeling (fluorescence staining) in live cells [7]: bright bands of fluorescence staining were clearly visible at midcell
